Measurements reported in patent publication US10299714B2, “Blood collection devices containing blood stabilization agent including variegin or analog thereof and/or a polysulfated disaccharide” (Becton, Dickinson and Company, priority 2010, dated 2019).
Counter-ions that a name gives are not always drawn. Non-standard residues stand in square brackets, D forms with d. Residues, ends and D or L forms follow the SMILES beside them. Oic = O=C(O)[C@@H]1C[C@@H]2CCCC[C@@H]2N1; Phe(4-Me) = Cc1ccc(C[C@H](N)C(=O)O)cc1

Assays:
whole blood sample [1] = assay: Visual inspection of stored whole blood sample for hemolysis; type: cell-based, human; details: Table 5
Excerpt: Skilled practitioners will appreciate the hemolyzed samples are an obvious visual clue that damage to blood cells has occurred, either during the collection, transport, or storage of blood samples. Although hemolysis is not necessarily detrimental to any one clinical assay, it is a well known interference for some tests, and thus it is preferable to avoid causing hemolysis. Hemolysis can be measured by visual scale (e.g., mild or slightly pink, moderate or noticeably red, or severe or dark red). Hemolysis can also be measured by spectroscopic measurement of the red color of the hemoglobin itself, and can be reported by the concentration of hemoglobin released into the serum or plasma (e.g., such that less than about 20 mg/dL concentration of released hemoglobin, or to an extent that the hemoglobin concentration cannot be measured visually or by spectroscopy represents “minor or negligible” hemolysis, about 20 to about 100 mg/dL represents “mild” hemolysis, about 100 to about 300 represents “moderate” hemolysis, or greater than about 300 mg/dL represents “severe” hemolysis).
(§1) The results are shown in Table 5 which lists additives alone or in combination that were spiked into freshly drawn whole blood samples. […] For some of the conditions tested, only a subset of these three parameters was recorded.

platelets [2] = assay: Whole blood impedance aggregometry (Multiplate): platelet aggregation after room temperature storage of drawn blood; type: cell-based, human
Excerpt: The blood was allowed to stand at room temperature, in undisturbed aliquots, until tested at the times indicated. Samples were inverted several times immediately prior to testing, to re-suspend blood cells that naturally settle over time.
Measurements: Testing of platelet function (which in this experiment, was aggregation activity) was done using the Multiplate instrument (Verum Diagnostics, Munich, Germany), which uses whole blood as the sample and an increase in impedance as the measurement of platelet aggregation. The instrument was used per manufacturer's instructions. Briefly, 300 microliters of isotonic saline was warmed in each reaction cuvette, and to this was added 300 microliters of the whole blood sample. In reactions where aspirin or other platelet antagonists (inhibitors) were added in vitro, 20 microliters (μL) of a stock solution of aspirin was spiked into the samples. The aggregation reaction was initiated by addition of a platelet agonist, in this case collagen, at 3.2 μg/ml and volume (20 μl) per manufacturer's instructions. Upon addition of the collagen, the impedance measurements began automatically, and were continued for 6 minutes, representing the full course along the x-axis in the graphs shown in FIG. 2. The graphs show platelet aggregation, as reported by impedance, as an arbitrary unitless measurement on the y-axis, over the 6-minute run time on the x-axis. Traces shown are raw platelet aggregation data delivered from the instrument. […] Representative data are shown for blood that dwells at room temperature after the initial draw for 1 hr, 24 hr, 48 hr, and 72 hr. Data are shown for the blood itself, as well for blood pre-treated with aspirin to inhibit platelet function immediately prior to testing.
The experiments were performed as described in Example 1. In this case, the data are plotted as a function of time that the blood sample dwells outside of the body (x-axis) versus platelet function as shown as the area under the curve (AUC) as one representation of the platelet aggregation signal. AUC is the integrated signal from the raw data traces shown in Example 1, and also is reported as a unitless measurement. The effective background level of the instrument is drawn as a dashed line across the bottom of the graph. Any AUC measurement of aggregation at or below this level was considered so weak as to be unreportable, essentially representing a “null” data level.
(§2) Relative stability of platelets was examined with respect to a range of concentrations of variegin (SEQ ID NO:1). Experiments were performed as described above, using either collagen or adenosine diphosphate (ADP) as agonists, all per manufacturer's recommended protocols. Table 2 lists a qualitative assessment of stability, namely how long after initially drawing the blood was platelet aggregation measureable above the effective instrument baseline, the time to first visual observation of clotted, insoluble material in the whole blood sample, and an assessment of the severity or extent of the presence of this insoluble material was also recorded.
These peptides were used as the blood stabilization agent, and were spiked into blood immediately after collection into an empty, evacuated blood collection tube, achieving a final concentration of 150 μM. The blood was allowed to dwell in a whole-blood state at room temperature, until assayed for platelet aggregation potential, all as described in Example 1. Agonists used included collagen and ADP, following manufacturer's instructions.

platelets [3] = assay: Platelet aggregation measurements using low dose ADP agonist, inventive tube versus hirudin tube; type: cell-based, human; design: key to Aggregation, AUC: area under curve of impedance aggregation trace, arbitrary unitless units; details: ADP 1.25 μM
Description: Measurements: Testing of platelet function (which in this experiment, was aggregation activity) was done using the Multiplate instrument (Verum Diagnostics, Munich, Germany), which uses whole blood as the sample and an increase in impedance as the measurement of platelet aggregation. The instrument was used per manufacturer's instructions. Briefly, 300 microliters of isotonic saline was warmed in each reaction cuvette, and to this was added 300 microliters of the whole blood sample. In reactions where aspirin or other platelet antagonists (inhibitors) were added in vitro, 20 microliters (μL) of a stock solution of aspirin was spiked into the samples. The aggregation reaction was initiated by addition of a platelet agonist, in this case collagen, at 3.2 μg/ml and volume (20 μl) per manufacturer's instructions. Upon addition of the collagen, the impedance measurements began automatically, and were continued for 6 minutes, representing the full course along the x-axis in the graphs shown in FIG. 2. The graphs show platelet aggregation, as reported by impedance, as an arbitrary unitless measurement on the y-axis, over the 6-minute run time on the x-axis. Traces shown are raw platelet aggregation data delivered from the instrument. The duplicate traces evident in some of the graphs represent two duplicate measurement channels that always ran simultaneously, to assist with statistical significance of the data, and often so closely overlap as to look like only a single trace in some graphs. Representative data are shown for blood that dwells at room temperature after the initial draw for 1 hr, 24 hr, 48 hr, and 72 hr. Data are shown for the blood itself, as well for blood pre-treated with aspirin to inhibit platelet function immediately prior to testing.
Relative stability of platelets was examined in blood that was collected from 5 different human subjects using an inventive blood collection tube containing 150 μM variegin (SEQ ID NO:1)+1.17 USP/mL unfractionated heparin, and as a comparison, blood collection tubes containing hirudin, commercially available from Verum Diagnostica (Catalog #MP0600 for “Hirudin vacuum blood collection tube”). Experiments were carried out as described above in Example 1, using the whole blood impedance aggregometer, and using a low dose of ADP (1.25 μM final concentration) as the agonist.

whole blood sample [4] = assay: Visual inspection of stored whole blood sample for clotted, insoluble material; design: species or system human; details: peptide 150 μM; room temperature
Description: as §2
These peptides were used as the blood stabilization agent, and were spiked into blood immediately after collection into an empty, evacuated blood collection tube, achieving a final concentration of 150 μM. The blood was allowed to dwell in a whole-blood state at room temperature, until assayed for platelet aggregation potential, all as described in Example 1. Agonists used included collagen and ADP, following manufacturer's instructions. Table 4 lists a qualitative assessment of stability, namely how long after initially drawing the sample was platelet aggregation measureable above the effective instrument baseline. Additionally, the time to first visual observation of clotted, insoluble material in the whole blood sample, and an assessment of the severity or extent of the presence of this insoluble material was also recorded. In some cases, only visual characterization of the amount of insoluble material was reported, without having performed any platelet aggregation measurements.
as §1

[5] = Table 4, peptide spiked into blood to 150 μM final, collagen and ADP, room temperature

O=S(=O)(O)OC[C@H]1O[C@@](COS(=O)(=O)O)(O[C@H]2O[C@H](COS(=O)(=O)O)[C@@H](OS(=O)(=O)O)[C@H](OS(=O)(=O)O)[C@H]2OS(=O)(=O)O)[C@@H](OS(=O)(=O)O)[C@@H]1OS(=O)(=O)O [SOS, sucrose octasulfate]
Visual inspection for hemolysis (whole blood sample [1]; additive alone at 2 mM): None-mild

Cc1ccc(C[C@H](NC(=O)[C@@H](C)NC(=O)[C@@H]2CCCN2C(=O)[C@@H]2C[C@@H]3CCCC[C@@H]3N2C(=O)[C@H](N)CCCN=C(N)N)C(N)=O)cc1 [Thrombostatin (FM-19), rOicPaF(p-Me)—NH2] (H-[dR][Oic]P[dA][Phe(4-Me)]-NH2)
Visual inspection for hemolysis (whole blood sample [1]; additive alone at 30 μM): None-mild

O=C(O)CC(O)(CC(=O)O)C(=O)O [citrate, sodium citrate, reference compound]
platelet aggregation, area under the curve (AUC), FIG. 3 (platelets [2]; 24 hr after draw, collagen, no aspirin): very close to the effective null level | platelet aggregation, area under the curve (AUC), FIG. 3 (platelets [2]; 48 hr after draw, collagen, no aspirin): no meaningful aggregation was detected | platelet aggregation signal (impedance, FIG. 2) (platelets [2]; all times longer than 1 hr (24, 48, 72 hr), collagen, sodium citrate ([…]) tube): clearly lost, resulting in almost non-measureable signal | loss of platelet function relative to the 1 hr sample (FIG. 4) (platelets [2]; within 24 hr, collagen, average of three human subjects): lost well more than half of their function

CC[C@H](C)[C@H](NC(=O)[C@H](C)NC(=O)[C@H](CCC(=O)O)NC(=O)[C@H](Cc1ccccc1)NC(=O)[C@H](CC(=O)O)NC(=O)[C@H](Cc1ccccc1)NC(=O)[C@@H]1CCCN1C(=O)[C@@H]1CCCN1C(=O)[C@H](C)NC(=O)[C@@H](NC(=O)[C@H](CCCCN)NC(=O)[C@H](Cc1cnc[nH]1)NC(=O)[C@H](CCSC)NC(=O)[C@H](CCCCN)NC(=O)[C@@H]1CCCN1C(=O)[C@H](CCC(=O)O)NC(=O)[C@H](C)NC(=O)[C@@H](NC(=O)[C@H](CC(=O)O)NC(=O)CNC(=O)[C@H](CCC(N)=O)NC(=O)[C@H](CC(=O)O)NC(=O)[C@@H](N)CO)C(C)C)[C@@H](C)O)C(=O)N1CCC[C@H]1C(=O)N[C@@H](CCC(=O)O)C(=O)N[C@@H](CCC(=O)O)C(=O)N[C@@H](Cc1ccc(O)cc1)C(=O)N[C@@H](CC(C)C)C(=O)N[C@@H](CC(=O)O)C(=O)N[C@@H](CC(=O)O)C(=O)N[C@@H](CCC(=O)O)C(=O)N[C@@H](CO)C(=O)O [variegin]
Visual inspection for hemolysis (whole blood sample [1]; additive alone at 150 μM): None-mild | platelet aggregation signal (impedance, FIG. 2) (platelets [2]; 24 and 48 hrs after draw, collagen, tube with 150 μM variegin, room temperature): preserved platelet function substantially at the level of function measured in the 1 hr-old sample | platelet aggregation, area under the curve (AUC), FIG. 3 (platelets [2]; 72 hr after draw, collagen, 150 μM variegin): meaningful measurements even at 72 hr | platelet aggregation signal (impedance, FIG. 2) (platelets [2]; 72 hr after draw, collagen, tube with 150 μM variegin, room temperature): slightly reduced but still sufficiently strong | Time after blood draw where aggregation was still measurable above baseline (platelets [2]; Table 2, 2 μM variegin, collagen or ADP, room temperature): 2 h | Time after blood draw where aggregation was still measurable above baseline (platelets [2]; Table 2, 15 μM variegin, collagen or ADP, room temperature): 24 h | Time after blood draw where aggregation was still measurable above baseline (platelets [2]; Table 2, 50 μM variegin, collagen or ADP, room temperature): 24 h | Time after blood draw where aggregation was still measurable above baseline (platelets [2]; Table 2, 75 μM variegin, collagen or ADP, room temperature): 48 to 72 h | Time after blood draw where aggregation was still measurable above baseline (platelets [2]; Table 2, 150 μM variegin, collagen or ADP, room temperature): ≥ 72 h | Time after blood draw where aggregation was still measurable above baseline (platelets [2]; [5]): 72 h | platelet aggregation signal maintained relative to the 1 hr sample (FIG. 4) (platelets [2]; as of 48 hr, collagen, average of three human subjects, 150 μM variegin): well more than half of the signal was maintained | strength of platelet aggregation signal (impedance, FIG. 2) (platelets [2]; fresh sample, 1 hr after draw, collagen […], tube with 150 μM variegin or sodium citrate ([…]), room temperature): higher than the citrate reference sample

GDVAEPKMHKTAPPFDFEAIPEEYLDDES (Synthetic Peptide Variegin Fragment) [Ct29]
Time after blood draw where aggregation was still measurable above baseline (platelets [2]; [5]): 54 to 79 h

Hirudin
Aggregation, AUC (platelets [3]; 0 hr, Subject 1): 34 | Aggregation, AUC (platelets [3]; 0 hr, Subject 2): 18 | Aggregation, AUC (platelets [3]; 0 hr, Subject 3): 84 | Aggregation, AUC (platelets [3]; 0 hr, Subject 4): 113 | Aggregation, AUC (platelets [3]; 0 hr, Subject 5): 59 | Aggregation, AUC (platelets [3]; 24 hr, Subject 1): 27 | Aggregation, AUC (platelets [3]; 24 hr, Subject 2): 15 | Aggregation, AUC (platelets [3]; 24 hr, Subject 3): 25 | Aggregation, AUC (platelets [3]; 24 hr, Subject 4): 22 | Aggregation, AUC (platelets [3]; 24 hr, Subject 5): 37 | area under the curve for the 1 h sample (platelets [3]; one of the five samples): 18 | aggregation (AUC), mean +/- spread of the 5 samples (platelets [3]; time zero): 62+/−38

SDQGDVAEPAMHKTAPPFDFEAIPEEYLDDES (Synthetic Peptide Variegin Fragment) [K10A]
time after blood draw to solid clotting of the sample (whole blood sample [4]): ≤ 4 h

heparin [reference compound]
blood stabilization performance (data not shown) (platelets [2]; used alone at 1.17 U/ml): performed relatively poorly
